Data published in publication PMC12316308, “Interactions of substrates and phosphinyl containing inhibitors with bacterial and human zinc proteases” (PLOS One, 2025).
“And” between values parts separate entries of the source, which are not always exact repeats. Equal values may be shown once. Read-outs that look alike come from different tables or passages of the source.

Key:
Assay type in all cases: biochemical
[1] = molecular target: T1, human MT1-MMP/MMP-14 (catalytic domain) (Homo sapiens, UniProt P50281); assay: Enzyme inhibition kinetics, fluorogenic substrate ES001; details: MMP-14; for remaining activity at 100 µM: 100 µM inhibitor
T1 construct: human MT1-MMP/MMP-14 (catalytic domain); purchased Calbiochem (San Diego, CA, USA)
Description: (§1) Determination of reaction velocities. The substrate ES001 was used for APMA activated MMP-9 (MMP-9(A)), Mag-Trypsin activated MMP-9 (MMP-9(MT)) and MMP-14, while the substrate ES005 was used for ALN, PLN and TLN. The reaction velocities/initial rates (v) were determined at 37°C, at an excitation wavelength of 320 nm and an emission wavelength of 405 nm with a slit width of 10 nm using either a Perkin Elmer LS 50 Luminescence spectrometer and the FL WinLab Software Package (Perkin Elmer) or a Clario Star micro plate reader (CLARIOstar® BMG LABTECH).
(§2) The phosphinic compounds were dissolved in 100% DMSO to a final concentration of 10 mM. In all assays, a fixed substrate concentration of 4.0 µM was used in a total volume of 100 µL 0.1 M Hepes pH 7.5, 10 mM CaCl2, 0.005% Brij-35 and 1.0% DMSO. Fixed enzyme concentrations were as follows; 0.05 nM MMP-9(A), 0.05 nM MMP-9(MT), 1.0 nM MMP-14, 1.4 nM ALN, 0.5 nM PLN and 0.21 nM TLN. Time dependent inhibitory experiments, with and without 100 μM of phosphinic compounds, were performed as follows: Compounds were either pre-incubated with proteases for 15 and 30 minutes at room temperature before initiating the enzymatic reaction by adding the substrate, or not pre-incubated, meaning the reaction was initiated by adding the protease to the mixture of substrate and compound. Control tests without the compound present were performed under the same conditions. Reactions were monitored for 30 minutes at 37°C.
(§3) Determination of IC50 and Ki values. […] A fixed substrate concentration and the same enzyme and buffer conditions as described above were used. Enzymes, with or without inhibitors, were either pre-incubated for 30 minutes at room temperature or not pre-incubated, and initial rate assays were performed as described above. Assays were performed using a Clario Star microplate reader. The IC50 values with corresponding s.d. were calculated with GraphPad Prism 5 using equation 1 or 2, depending on the concentration range of the phosphinic compounds.
(§4) Equation 3 describe the relationship between IC50 and Ki values for substrate competitive inhibitors, considering the fixed substrate concentration and the enzyme’s Km value for the substrate: […]

[2] = molecular target: T2, APMA activated MMP-9 (MMP-9(A)) (Homo sapiens, UniProt P14780); assay: as above; details: rMMP-9 (APMA activated); for remaining activity at 100 µM: 100 µM inhibitor
T2 construct: made in house; host or cells: Sf9 and High Five insect cells
Description: (§5) The expression of recombinant full length proMMP-9 (rpMMP-9) in Sf9 and High Five insect cells and the purification were performed as previously described. The amount of proMMP-9 was estimated spectrophotometrically at 280 nm using ε280nm = […] [46] for the full length enzyme. Activation of the recombinant proMMP-9 was performed with APMA (auto-activation) and Mag-Trypsin as previously described, while the amount of active MMP-9 was determined by active site titration using galardin, also described previously.
as §1, §2, §3, §4

[3] = molecular target: T3, Mag-Trypsin activated MMP-9 (MMP-9(MT)) (Homo sapiens, UniProt P14780); assay: as above; details: rMMP-9 (Mag-trypsin activated); for remaining activity at 100 µM: 100 µM inhibitor
T3 construct: made in house; host or cells: Sf9 and High Five insect cells
Description: as §5, §1, §2, §3, §4

[4] = molecular target: T4, aureolysin (ALN) (Staphylococcus aureus, UniProt P81177); assay: Enzyme inhibition kinetics, fluorogenic substrate ES005; details: for remaining activity at 100 µM: 100 µM inhibitor
T4 construct: purchased BioCentrum Ltd (Kraków, Poland)
Description: as §1, §2, §3, §4

[5] = molecular target: T5, pseudolysin (PLN, LasB) (Pseudomonas aeruginosa, UniProt P14756); assay: as above; details: for remaining activity at 100 µM: 100 µM inhibitor
T5 construct: purchased Calbiochem (San Diego, CA, USA)
Description: as §1, §2, §3, §4

[6] = molecular target: T6, thermolysin (TLN) (Bacillus thermoproteolyticus, UniProt P00800); assay: as above; details: for vi/v0 avg (time dependent inhibition, Supplementary Figure S8): Thermolysin, inhibitor 100 µM
T6 construct: purchased Calbiochem (San Diego, CA, USA)
Description: as §1, §2, §3, §4

[7] = 0.25 h, 15 min pre incubation, read-out: vi/v0 avg
[8] = 0.5 h, 30 min pre incubation, read-out: vi/v0 (single replicate)
[9] = 0.5 h, 30 min pre incubation, read-out: vi/v0 avg
[10] = no preincubation, read-out: vi/v0 avg
[11] = inhibitor 100 μM, preincubation 0 min
[12] = inhibitor 100 μM, preincubation 15 min
[13] = inhibitor 100 μM, preincubation 30 min
[14] = 0.25 h, 15 min pre incubation, read-out: vi/v0 (single replicate)
[15] = no preincubation, read-out: vi/v0 (single replicate)
[16] = inhibitor 100 μM, average over 0, 15, 30 min preincubation

T2 sequence (P14780 107-707 limits assumed): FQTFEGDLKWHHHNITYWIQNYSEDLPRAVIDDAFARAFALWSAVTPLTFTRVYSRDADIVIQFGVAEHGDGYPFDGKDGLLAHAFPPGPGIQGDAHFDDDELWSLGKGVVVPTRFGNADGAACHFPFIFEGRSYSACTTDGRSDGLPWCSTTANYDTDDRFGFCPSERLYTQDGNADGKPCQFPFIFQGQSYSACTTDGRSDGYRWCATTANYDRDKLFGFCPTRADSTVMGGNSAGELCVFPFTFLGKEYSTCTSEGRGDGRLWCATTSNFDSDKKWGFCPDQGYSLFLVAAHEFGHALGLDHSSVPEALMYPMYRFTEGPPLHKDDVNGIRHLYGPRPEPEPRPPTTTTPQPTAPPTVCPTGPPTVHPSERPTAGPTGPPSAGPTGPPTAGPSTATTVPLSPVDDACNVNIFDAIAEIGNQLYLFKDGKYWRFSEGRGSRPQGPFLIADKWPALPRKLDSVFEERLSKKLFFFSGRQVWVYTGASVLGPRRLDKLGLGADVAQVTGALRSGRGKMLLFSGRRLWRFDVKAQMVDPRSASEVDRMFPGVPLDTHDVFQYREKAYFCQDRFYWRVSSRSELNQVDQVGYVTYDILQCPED
T3 sequence (P14780 107-707 limits assumed): as above
T5 sequence (P14756 198-498): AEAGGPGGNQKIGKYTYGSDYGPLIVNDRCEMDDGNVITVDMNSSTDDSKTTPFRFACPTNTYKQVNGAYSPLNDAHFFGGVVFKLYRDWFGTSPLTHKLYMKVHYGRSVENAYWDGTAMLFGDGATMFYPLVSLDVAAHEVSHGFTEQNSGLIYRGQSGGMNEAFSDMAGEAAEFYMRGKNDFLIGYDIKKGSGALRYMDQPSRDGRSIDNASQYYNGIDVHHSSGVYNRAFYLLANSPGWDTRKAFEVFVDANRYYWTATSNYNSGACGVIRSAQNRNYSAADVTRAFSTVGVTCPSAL
T6 sequence (P00800 233-548): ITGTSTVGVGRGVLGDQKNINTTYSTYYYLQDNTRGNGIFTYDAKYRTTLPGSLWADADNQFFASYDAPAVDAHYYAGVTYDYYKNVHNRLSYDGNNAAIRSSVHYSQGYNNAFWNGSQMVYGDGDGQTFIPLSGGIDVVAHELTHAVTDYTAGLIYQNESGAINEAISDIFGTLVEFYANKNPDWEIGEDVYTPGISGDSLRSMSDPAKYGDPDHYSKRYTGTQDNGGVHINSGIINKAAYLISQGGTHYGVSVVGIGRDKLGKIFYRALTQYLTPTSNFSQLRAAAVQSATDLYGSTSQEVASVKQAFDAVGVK
T4 sequence (P81177 209-509): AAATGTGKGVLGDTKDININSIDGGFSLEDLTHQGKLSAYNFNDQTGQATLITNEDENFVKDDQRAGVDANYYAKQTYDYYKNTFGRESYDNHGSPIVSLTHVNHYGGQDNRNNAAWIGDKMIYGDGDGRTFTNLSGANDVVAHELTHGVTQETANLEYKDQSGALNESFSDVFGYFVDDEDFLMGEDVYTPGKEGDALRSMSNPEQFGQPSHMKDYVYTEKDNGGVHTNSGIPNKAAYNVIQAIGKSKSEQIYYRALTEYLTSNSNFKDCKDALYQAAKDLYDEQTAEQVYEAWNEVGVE

## CC(NC(=O)OCc1ccccc1)P(=O)(O)CC(Cc1ccccc1)C(=O)O (centres unmarked) [H4]
[1]; [7]
  remaining activity at 100 µM: 101%
[1]; [8]
  remaining activity at 100 µM: 101%
[1]; [9]
  remaining activity at 100 µM: 102%
[1]; [10]
  remaining activity at 100 µM: 106%
[1]; inhibitor 100 μM, average over preincubation times
  vi/v0 Av (bar diagram figure 7): 1.032
[1]; [11]
  vi/v0 (relative enzyme activity with inhibitor), single determinations: 1.105 and 1.3078 and 1.015 and 0.8074
[1]; [12]
  vi/v0 (relative enzyme activity with inhibitor), single determinations: 0.8428 and 1.155 and 1.039
[1]; [13]
  vi/v0 (relative enzyme activity with inhibitor), single determinations: 1.0115 and 1.061 and 0.9741
[2]; [14]
  remaining activity at 100 µM: 99.2%
[2]; [7]
  remaining activity at 100 µM: 95%
[2]; [9]
  remaining activity at 100 µM: 100%
[2]; [15]
  remaining activity at 100 µM: 94.1%
[2]; [10]
  remaining activity at 100 µM: 99.6%
[2]; [16]
  vi/v0 Av (bar diagram figure 7): 0.9837
[2]; [11]
  vi/v0 (relative enzyme activity with inhibitor), single determinations: 0.9415 and 1.015 and 1.031
[2]; [12]
  vi/v0 (relative enzyme activity with inhibitor), single determinations: 0.9922 and 0.9231 and 0.9335
[2]; [13]
  vi/v0 (relative enzyme activity with inhibitor), single determinations: 1.197 and 1.012 and 1.109 and 0.6833
[3]; [14]
  remaining activity at 100 µM: 93.4%
[3]; [7]
  remaining activity at 100 µM: 93.8%
[3]; [8]
  remaining activity at 100 µM: 97.8%
[3]; [9]
  remaining activity at 100 µM: 96.3%
[3]; [15]
  remaining activity at 100 µM: 84.9%
[3]; [10]
  remaining activity at 100 µM: 88.4%
[3]; [16]
  vi/v0 Av (bar diagram figure 7): 0.9238
[3]; [11]
  vi/v0 (relative enzyme activity with inhibitor), single determinations: 0.8486 and 0.9422 and 0.8609
[3]; [12]
  vi/v0 (relative enzyme activity with inhibitor), single determinations: 0.9336 and 1.006 and 0.8738
[3]; [13]
  vi/v0 (relative enzyme activity with inhibitor), single determinations: 0.9779 and 0.9473
[4]; 0.25 h, read-out: vi/v0 (single replicate), Aureolysin, 15 min pre incubation
  remaining activity at 100 µM: 91.1%
[4]; 0.25 h, read-out: vi/v0 avg, Aureolysin, 15 min pre incubation
  remaining activity at 100 µM: 90.2%
[4]; 0.5 h, read-out: vi/v0 (single replicate), Aureolysin, 30 min pre incubation
  remaining activity at 100 µM: 90.1%
[4]; 0.5 h, read-out: vi/v0 avg, Aureolysin, 30 min pre incubation
  remaining activity at 100 µM: 89.4%
[4]; Aureolysin (ALN), inhibitor 100 μM, average over 0, 15, 30 min preincubation
  vi/v0 Av (bar diagram figure 7): 0.8998
[4]; Aureolysin (ALN), inhibitor 100 μM, preincubation 0 min
  vi/v0 (relative enzyme activity with inhibitor), single determinations: 0.9356 and 0.8634 and 0.8536 and 0.9579
[4]; Aureolysin (ALN), inhibitor 100 μM, preincubation 15 min
  vi/v0 (relative enzyme activity with inhibitor), single determinations: 0.9112 and 0.976 and 0.8542 and 0.865
[4]; Aureolysin (ALN), inhibitor 100 μM, preincubation 30 min
  vi/v0 (relative enzyme activity with inhibitor), single determinations: 0.898 and 0.8819
[4]; read-out: vi/v0 (single replicate), Aureolysin, no preincubation
  remaining activity at 100 µM: 93.6%
[4]; read-out: vi/v0 avg, Aureolysin, no preincubation
  remaining activity at 100 µM: 90.3%
[5]; 0.25 h, read-out: vi/v0 (single replicate), Pseudolysin, 15 min pre incubation
  remaining activity at 100 µM: 75.8%
[5]; 0.25 h, read-out: vi/v0 avg, Pseudolysin, 15 min pre incubation
  remaining activity at 100 µM: 75.4%
[5]; 0.5 h, read-out: vi/v0 (single replicate), Pseudolysin, 30 min pre incubation
  remaining activity at 100 µM: 64.2%
[5]; 0.5 h, read-out: vi/v0 avg, Pseudolysin, 30 min pre incubation
  remaining activity at 100 µM: 64%
[5]; Pseudolysin (PLN), inhibitor 100 μM, average over 0, 15, 30 min preincubation
  vi/v0 Av (bar diagram figure 7): 0.7111
[5]; Pseudolysin (PLN), inhibitor 100 μM, preincubation 0 min
  vi/v0 (relative enzyme activity with inhibitor), single determinations: 0.8985 and 0.6806 and 0.6817
[5]; Pseudolysin (PLN), inhibitor 100 μM, preincubation 15 min
  vi/v0 (relative enzyme activity with inhibitor), single determinations: 0.7584 and 0.7504
[5]; Pseudolysin (PLN), inhibitor 100 μM, preincubation 30 min
  vi/v0 (relative enzyme activity with inhibitor), single determinations: 0.6423 and 0.5711 and 0.7059
[5]; read-out: vi/v0 avg, Pseudolysin, no preincubation
  remaining activity at 100 µM: 75.4%
[6]; Thermolysin (TLN), inhibitor 100 μM, average over 0, 15, 30 min preincubation
  vi/v0 Av (bar diagram figure 7): 0.9988
[6]; Thermolysin (TLN), inhibitor 100 μM, preincubation 0 min
  vi/v0 (relative enzyme activity with inhibitor), single determinations: 1.0006 and 1.038 and 0.8834 and 0.9657
[6]; Thermolysin (TLN), inhibitor 100 μM, preincubation 15 min
  vi/v0 (relative enzyme activity with inhibitor), single determinations: 1.066 and 0.8371 and 1.067 and 1.122
[6]; Thermolysin (TLN), inhibitor 100 μM, preincubation 30 min
  vi/v0 (relative enzyme activity with inhibitor), single determinations: 1.04 and 0.9732 and 1.001 and 0.9929
[6]; 15 min pre incubation
  vi/v0 avg (time dependent inhibition, Supplementary Figure S8): 1.023
[6]; 30 min pre incubation
  vi/v0 avg (time dependent inhibition, Supplementary Figure S8): 1.002
[6]; No preincubation
  vi/v0 avg (time dependent inhibition, Supplementary Figure S8): 0.9718
